According to PubChem BioAssay (NCI):
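At the GI50, growth is halved. At the TGI there is no net growth.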

How the values were obtained:
Assay in all cases: DTP human tumour cell line panel, 384-well format
[1] = tested on: BT-549 breast
[2] = tested on: ACHN renal
[3] = tested on: CAKI-1 renal
[4] = tested on: SNB-75 CNS
[5] = tested on: NCI/ADR-RES ovarian
[6] = tested on: A549 NSCLC
[7] = tested on: MALME-3M melanoma
[8] = tested on: HCT-116 colon
[9] = tested on: NCI-H460 NSCLC
[10] = tested on: NCI-H226 lung
[11] = tested on: M14 melanoma
[12] = tested on: RPMI-8226 leukemia
[13] = tested on: MCF7 breast
[14] = tested on: SN12C renal
[15] = tested on: SF-539 CNS
[16] = tested on: MDA-MB-231 breast
[17] = tested on: MDA-MB-468 breast
[18] = tested on: HS 578T breast
[19] = tested on: IGROV1 ovarian
[20] = tested on: TK-10 renal
[21] = tested on: HOP-92 NSCLC
[22] = tested on: MOLT-4 leukemia
[23] = tested on: COLO 205 colon
[24] = tested on: UACC-257 melanoma
[25] = tested on: K-562 leukemia
[26] = tested on: RXF 393 renal
[27] = tested on: SR leukemia
[28] = tested on: HL-60(TB) leukemia
[29] = tested on: HOP-62 NSCLC
[30] = tested on: NCI-H23 lung
[31] = tested on: HCT-15 colon
[32] = tested on: 786-0 renal
[33] = tested on: OVCAR-3 ovarian
[34] = tested on: SF-295 CNS
[35] = tested on: U251 glioblastoma
[36] = tested on: NCI-H322M lung
[37] = tested on: OVCAR-5 ovarian
[38] = tested on: SF-268 CNS
[39] = tested on: CCRF-CEM leukemia
[40] = tested on: EKVX NSCLC
[41] = tested on: OVCAR-4 ovarian
[42] = tested on: HCC-2998 colon
[43] = tested on: KM12 colon
[44] = tested on: OVCAR-8 ovarian
[45] = tested on: NCI-H522 lung
[46] = tested on: SW-620 colon
[47] = tested on: SK-OV-3 ovarian
[48] = tested on: UO-31 renal
[49] = tested on: LOX IMVI melanoma
[50] = tested on: SNB-19 CNS
[51] = tested on: T-47D breast
[52] = tested on: SK-MEL-5 melanoma
[53] = tested on: HT29 colon
[54] = tested on: A498 renal
[55] = tested on: PC-3 prostate
[56] = tested on: SK-MEL-28 melanoma
[57] = tested on: DU-145 prostate
[58] = tested on: MDA-MB-435 melanoma

## CCC[C@H](Nc1nc(-c2ccc(NC(=O)NCC)c(OC)c2)ncc1C)c1cccnc1
[1]
  GI50: 22.7 nM
  TGI: 59 nM
[2]
  GI50: 55 nM
  TGI: 15600 nM
[3]
  GI50: 30 nM
  TGI: 14800 nM
[4]
  GI50: 33.4 nM
  TGI: 11300 nM
[5]
  GI50: 170 nM
  TGI: 426 nM
[6]
  GI50: 43.4 nM
  TGI: 17400 nM
[7]
  GI50: 32 nM
  TGI: 15000 nM
[8]
  GI50: 26.3 nM
  TGI: 74.5 nM
[9]
  GI50: 17.8 nM
  TGI: 35.4 nM
[10]
  GI50: 26.9 nM
  TGI: 75.3 nM
[11]
  GI50: 21.8 nM
  TGI: 63.6 nM
[12]
  GI50: 18.2 nM
  TGI: 32.8 nM
[13]
  GI50: 29.6 nM
  TGI: 1360 nM
[14]
  GI50: 37.9 nM
  TGI: 10500 nM
[15]
  GI50: 18.3 nM
  TGI: 36.5 nM
[16]
  GI50: 45.2 nM
  TGI: 17400 nM
[17]
  GI50: 16.8 nM
  TGI: 33.4 nM
[18]
  GI50: 18.7 nM
  TGI: 37.3 nM
[19]
  GI50: 40.4 nM
  TGI: 12400 nM
[20]
  GI50: 47.3 nM
  TGI: 16700 nM
[21]
  GI50: 30.4 nM
  TGI: 650 nM
[22]
  GI50: 19.7 nM
  TGI: 34.2 nM
[23]
  GI50: 19.3 nM
  TGI: 41.7 nM
[24]
  GI50: 74.5 nM
  TGI: 16400 nM
[25]
  GI50: 20.3 nM
  TGI: 39.6 nM
[26]
  GI50: 16.4 nM
  TGI: 40.6 nM
[27]
  TGI: 16.1 nM
[28]
  GI50: 16.5 nM
  TGI: 30.4 nM
[29]
  GI50: 33.1 nM
  TGI: 1180 nM
[30]
  GI50: 20.7 nM
  TGI: 51.6 nM
[31]
  GI50: 24 nM
  TGI: 68.3 nM
[32]
  GI50: 31.7 nM
  TGI: 97.5 nM
[33]
  GI50: 19.5 nM
  TGI: 43 nM
[34]
  GI50: 18.5 nM
  TGI: 43.1 nM
[35]
  GI50: 25 nM
  TGI: 64.6 nM
[36]
  GI50: 40.8 nM
  TGI: 20600 nM
[37]
  GI50: 798 nM
  TGI: 84800 nM
[38]
  GI50: 27.3 nM
  TGI: 169 nM
[39]
  GI50: 20 nM
  TGI: 34.5 nM
[40]
  GI50: 43 nM
  TGI: 13300 nM
[41]
  GI50: 48.6 nM
  TGI: 8480 nM
[42]
  GI50: 22.9 nM
  TGI: 63 nM
[43]
  GI50: 26.4 nM
  TGI: 1180 nM
[44]
  GI50: 21.1 nM
  TGI: 49.2 nM
[45]
  GI50: 17.6 nM
  TGI: 37.8 nM
[46]
  GI50: 43.4 nM
  TGI: 16500 nM
[47]
  GI50: 34.8 nM
  TGI: 1500 nM
[48]
  GI50: 62.8 nM
  TGI: 15300 nM
[49]
  GI50: 25.6 nM
  TGI: 67 nM
[50]
  GI50: 35.3 nM
  TGI: 10300 nM
[51]
  GI50: 71.9 nM
  TGI: 14400 nM
[52]
  GI50: 17.5 nM
  TGI: 36.5 nM
[53]
  GI50: 28.9 nM
  TGI: 12600 nM
[54]
  GI50: 32.1 nM
  TGI: 479 nM
[55]
  GI50: 38.5 nM
  TGI: 16500 nM
[56]
  GI50: 95.6 nM
  TGI: 16200 nM
[57]
  GI50: 30.7 nM
  TGI: 91.6 nM
[58]
  GI50: 19.1 nM
  TGI: 38.2 nM
